Laboratory results published in publication PMC8119466, “A screen of FDA-approved drugs identifies inhibitors of protein tyrosine phosphatase 4A3 (PTP4A3 or PRL-3)” (Scientific Reports, 2021).

How the values were obtained:
HEK293T cells [1] = experiment: MTT viability assay; assay type: cell-based, human; conditions: drug doses 1 to 100 µM, 16 h, normalized to 1% DMSO
Method: Cells were seeded into duplicate wells of a 96 well plate at a density of 2 × 10^4 cells per well and allowed to recover for 24 h. Cells were then treated with drug or DMSO at the indicated concentrations for 16 h. Following drug treatment, 10 μL of 5 mg/ml MTT (Sigma, M5655) was added to each well and cells were incubated for 4 h. Finally, media were removed, and the dye was solubilized in 100 μL of 0.1 M HCl in isopropanol. Absorbance was measured at 570 nm and 690 nm with final absorbance measurements as 570–690 nm.

recombinant PRL-2 = molecular target: T1, recombinant PRL-2 (Homo sapiens, UniProt Q12974); experiment: In vitro phosphatase assay (DiFMUP hydrolysis), PRL-2; assay type: biochemical; conditions: for IC50: 2.5 µM protein, DiFMUP at KM, read-out: Calculated IC50, PRL-2 phosphatase activity;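 as to all read-outs here: PRL-2 activity read as DiFMUP hydrolysis after 20 min at room temperature with drug, enzyme first pre-reduced at 4 °C for 20 min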
T1 construct: 6xHis (N, cleaved yes); made in house; host or cells: E. coli One Shot BL21 Star
T1 sequence (Q12974 1-167): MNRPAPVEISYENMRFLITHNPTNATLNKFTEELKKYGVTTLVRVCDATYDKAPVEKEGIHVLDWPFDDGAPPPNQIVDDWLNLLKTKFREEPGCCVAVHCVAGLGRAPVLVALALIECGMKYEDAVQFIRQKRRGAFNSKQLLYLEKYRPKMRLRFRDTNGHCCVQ

HEK293T cells [2] = experiment: Scratch (migration) assay, HEK293T transfected with PRL-3 or empty vector; assay type: cell-based, human; conditions: HEK293T transfected with PRL-3, 24 h, compared to DMSO
Method: pENTR-PRL-3 (previously described[51]) was cloned into pLKO-CMV-puro using LR clonase (Thermofisher, 11,791,019) according to manufacturer’s directions. pLKO-CMV empty vector (EV) and pLKO-CMV:PRL-3 were transfected into HEK293T using Lipofectamine 3000 (ThermoFisher, L3000015) according to manufacturer’s protocol. Transfected cells were selected with 1 µg/mL puromycin in complete media to establish the cell line, then were maintained under 0.5 µg/mL puromycin in complete media. For PRL-3 knockdown, pLKO.1-scrambled shRNA and pLKO.1-PRL-3 shRNA[51] plasmids were transfected into HCT116 cells using Lipofectamine 3000 (Thermo Fisher, Cat # L3000015) according to the manufacturer’s directions. Cells were selected for 48 h in 1 µg/mL puromycin before use in assays.
Cells were seeded into duplicate wells of a 48 well plates at a density of 2 × 10^5 cells per well for HEK293T or 4 × 10^5 for HCT116 and SW480. Cells were recovered overnight and were scratched using a p20 pipette tip the following day. Compounds were added at the concentrations indicated. Images were obtained immediately after the scratch and after a 24 h incubation with the drug on an Evos FL inverted microscope (ThermoFisher). The area within the scratch was calculated using ImageJ. The area migrated was measured as the difference in wound area at 0 h and 24 h and the percent change in migration was calculated by dividing the difference in wound area of treatment by the difference in wound area of the control.

recombinant PRL-3 = molecular target: T2, recombinant PRL-3 (Homo sapiens, UniProt O75365); experiment: In vitro phosphatase assay (DiFMUP hydrolysis), PRL-3; assay type: biochemical; conditions: for IC50: 2.5 µM protein, DiFMUP at KM, read-out: Calculated IC50, PRL-3 phosphatase activity
T2 construct: 6xHis (N, cleaved yes); made in house; host or cells: E. coli One Shot BL21 Star

recombinant PRL-1 = molecular target: T3, recombinant PRL-1 (Homo sapiens, UniProt Q93096); experiment: In vitro phosphatase assay (DiFMUP hydrolysis), PRL-1; assay type: biochemical; conditions: for IC50: 2.5 µM protein, DiFMUP at KM, read-out: Calculated IC50, PRL-1 phosphatase activity
T3 construct: 6xHis (N, cleaved yes); made in house; host or cells: E. coli One Shot BL21 Star
T3 sequence (Q93096 1-173): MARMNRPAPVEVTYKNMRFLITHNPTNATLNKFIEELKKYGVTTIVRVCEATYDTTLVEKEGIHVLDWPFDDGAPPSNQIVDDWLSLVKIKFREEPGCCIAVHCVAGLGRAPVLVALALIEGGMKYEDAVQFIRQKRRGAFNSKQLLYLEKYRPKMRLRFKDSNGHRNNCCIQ

[3] = FDA-approved drug screen, compared to DMSO

T2 sequence (O75365 whole entry): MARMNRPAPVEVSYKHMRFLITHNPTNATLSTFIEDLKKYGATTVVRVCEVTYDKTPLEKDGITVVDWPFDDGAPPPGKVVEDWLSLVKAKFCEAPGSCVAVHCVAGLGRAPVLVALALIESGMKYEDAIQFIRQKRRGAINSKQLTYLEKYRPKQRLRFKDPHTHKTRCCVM

IC50 (recombinant PRL-2) [nM] | IC50 (recombinant PRL-3) [nM] | IC50 (recombinant PRL-1) [nM] | % Phosphatase Activity (compared to DMSO) PRL-2 (recombinant PRL-2; [3]) [%] | % Phosphatase Activity (compared to DMSO) PRL-3 (recombinant PRL-3; [3]) [%] | % Phosphatase Activity (compared to DMSO) PRL-1 (recombinant PRL-1; [3]) [%] | Compound | viability (MTT) (HEK293T cells [1]) | cellular migration in PRL-3 overexpressing cells (HEK293T cells [2])
1100 ± 300 | 700 ± 100 | 400 ± 200 | 26 | 10 | 16 | CC(=O)c1cc2c(o1)C(=O)c1ccccc1C2=O [Napabucasin, reference compound] | decreased viability | less significant effects on the migration of PRL-3 expressing cells
16000 ± 2000 | 13000 ± 400 | 20000 ± 3000 |  |  |  | COc1cc(C(=O)O)ccc1NC(=O)[C@@H]1N[C@@H](CC(C)(C)C)[C@](C#N)(c2ccc(Cl)cc2F)[C@H]1c1cccc(Cl)c1F [Idasanutlin, reference compound] | decreased viability | less significant effects on the migration of PRL-3 expressing cells

Compound | IC50 (recombinant PRL-2) [nM] | IC50 (recombinant PRL-3) [nM] | IC50 (recombinant PRL-1) [nM] | % Phosphatase Activity (compared to DMSO) PRL-2 (recombinant PRL-2; [3]) [%] | % Phosphatase Activity (compared to DMSO) PRL-3 (recombinant PRL-3; [3]) [%] | % Phosphatase Activity (compared to DMSO) PRL-1 (recombinant PRL-1; [3]) [%] | viability (MTT) (HEK293T cells [1]) | cellular migration in PRL-3 overexpressing cells (HEK293T cells [2])
COCCn1c2c([n+](Cc3cnccn3)c1C)C(=O)c1ccccc1C2=O [YM155, reference compound] | 700 ± 100 | 300 ± 100 | 300 ± 100 |  |  |  | decreased viability | less significant effects on the migration of PRL-3 expressing cells
